The results in this text go back to the NIST ThermoML archive (doi:10.1016/j.tca.2018.08.005).

± gives the expanded uncertainty stated by the source.

For series [1] the following is noted: Crystal; DTA.
Series [2] in a line: Molar enthalpy of transition or fusion. The note with it: Crystal; DSC.

For `O.O.O.O.O.O.O.O.O.O.O=S(=O)([O-])[O-].[Na+].[Na+]` [sodium sulfate decahydrate], in series [1], the Normal melting temperature amounted to 35.00 ± 5 °C. Also, the “Molar enthalpy of transition or fusion” value in series [2] was 18 ± 1.84 kcal/mol.
